Measured values reported in patent publication US8637485B2, “5′,-substituted adenosynes preparation thereof and use as inhibitors of S-adenosylmethionine decarboxylase” (Southern Research Institute, priority 2007, dated 2014).
Structures can show the parent of a compound that is named as a salt.

How the values were obtained:
hAdoMetDC = target: T1, hAdoMetDC (Homo sapiens, UniProt P17707); assay: Assay of AdoMetDC activity (release of 14CO2 from S-adenosyl-L-[carboxy-14C]methionine) and determination of inhibitor IC50 values; assay type: biochemical; settings: for IC50: at least 5 concentrations, curve fit of inhibitor concentration versus % inhibition of hAdoMetDC; for inhibition / inhibition at 100 µM: at 100 μM
T1 construct: the enzyme undergoes autoprocessing to give the α and the β subunits; made in house; host or cells: E. coli JM109 (pQE30-based plasmid)
T1 sequence (P17707 1-67 limits assumed): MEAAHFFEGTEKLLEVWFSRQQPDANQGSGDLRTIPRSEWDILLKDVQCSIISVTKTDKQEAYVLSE
T1 sequence (P17707 68-328 limits assumed): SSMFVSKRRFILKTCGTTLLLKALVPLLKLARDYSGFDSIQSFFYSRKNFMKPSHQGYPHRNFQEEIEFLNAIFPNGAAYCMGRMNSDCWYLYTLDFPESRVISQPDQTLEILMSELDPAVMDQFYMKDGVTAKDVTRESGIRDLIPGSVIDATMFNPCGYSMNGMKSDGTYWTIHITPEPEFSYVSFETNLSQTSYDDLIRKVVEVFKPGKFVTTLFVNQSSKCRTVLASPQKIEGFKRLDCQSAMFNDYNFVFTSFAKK
Method: Assay of AdoMetDC Activity and Determination of Inhibitor IC50 Values
(§1) AdoMetDC was assayed by measuring the release of ^14CO2 from S-adenosyl-L-[carboxy-^14C]methionine (Amersham Pharmacia Biotech, ˜60 mCi/mmol) (36). […] For determination of the abilities of compounds to inhibit AdoMetDC, the enzyme activity was determined in the presence of no inhibitor and at least 5 concentrations of each potential inhibitor. The IC50 values were determined from curve fitting to plots of the inhibitor concentration versus the % inhibition of AdoMetDC.
as §1

AdoMetDC = target: T2, AdoMetDC (Homo sapiens, UniProt P17707); settings: previously reported; cited from earlier work
T2 sequence (P17707 1-334): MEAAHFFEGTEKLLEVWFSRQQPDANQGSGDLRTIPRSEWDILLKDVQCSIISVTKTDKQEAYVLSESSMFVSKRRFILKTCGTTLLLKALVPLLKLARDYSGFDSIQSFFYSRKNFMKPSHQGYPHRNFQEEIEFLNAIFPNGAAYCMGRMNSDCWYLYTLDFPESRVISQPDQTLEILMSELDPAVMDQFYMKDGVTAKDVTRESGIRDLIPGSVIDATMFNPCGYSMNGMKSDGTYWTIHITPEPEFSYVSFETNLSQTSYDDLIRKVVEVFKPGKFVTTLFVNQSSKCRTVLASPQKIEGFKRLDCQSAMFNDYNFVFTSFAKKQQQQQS

Row | Structure (SMILES) | IC50 (hAdoMetDC) | also measured
1 | Cc1nc2c(N)ncnc2n1[C@@H]1O[C@H](CN(C)CCON)[C@@H](O)[C@H]1O [Compound 7a, 5′-[(2-Aminooxyethyl)methylamino]-5′-deoxy-8-methyladenosine sulfate (2.2:1 salt)] | – | increase in potency when an adenine 8-methyl substituent was added (hAdoMetDC; versus un-substituted parent compound): 8 fold
2 | CNc1nc2c(N)ncnc2n1[C@@H]1O[C@H](CN(C)CCON)[C@@H](O)[C@H]1O [Compound 7b, 5′-[(2-Aminooxyethyl)methylamino]-5′-deoxy-8-(methylamino)adenosine sulfate (2.1:1 salt)] | 0.086 µM | –
3 | CN(CCON)C[C@H]1O[C@@H](n2c(-c3ccccc3)nc3c(N)ncnc32)[C@H](O)[C@@H]1O.CN(CCON)C[C@H]1O[C@@H](n2c(-c3ccccc3)nc3c(N)ncnc32)[C@H](O)[C@@H]1O.O=S(=O)(O)O [Compound 7c, 5′-[(2-Aminooxyethyl)methylamino]-5′-deoxy-8-phenyladenosine sulfate (2:1 salt)] | – | inhibition (hAdoMetDC): <5% inhibition at 100 μM
4 | CNc1nc2c(N)ncnc2n1[C@@H]1O[C@H](CN(C)CCCCON)[C@@H](O)[C@H]1O [Compound 9a, 5′-[(4-Aminooxybutyl)methylamino]-5′-deoxy-8-(methylamino)adenosine sulfate (0.4:1 salt)] | 0.049 µM | –
5 | CN(CCCCON)C[C@H]1O[C@@H](n2c(-c3ccccc3)nc3c(N)ncnc32)[C@H](O)[C@@H]1O.O=S(=O)(O)O [Compound 9b, 5′-[(4-Aminooxybutyl)methylamino]-5′-deoxy-8-phenyladenosine sulfate (1.75:1 salt)] | – | inhibition (hAdoMetDC): <5% inhibition at 100 μM
6 | CN(CCCCON)C[C@H]1O[C@@H](n2c(=O)[nH]c3c(N)ncnc32)[C@H](O)[C@@H]1O [Compound 9c, 5′-[(4-Aminooxybutyl)methylamino]-5′-deoxy-8-oxoadenosine sulfate (1.9:1 salt)] | 0.011 µM | –
7 | Cc1nc2c(N)ncnc2n1[C@@H]1O[C@H](CN(C)CCCCON)[C@@H](O)[C@H]1O [Compound 9d, 5′-[(4-Aminooxybutyl)methylamino]-5′-deoxy-8-methyladenosine sulfate (1.9:1 salt)] | 0.005 µM | reduction in the IC50 value when an 8-methyl substituent was added to the adenine ring (hAdoMetDC; versus 8-unsubstituted parent compound): 3.4 fold
8 | CN(CCCCON)C[C@H]1O[C@@H](n2cnc3c(N)ncnc32)[C@H](O)[C@@H]1O [Compound 9f, 5′-[(4-Aminooxybutyl)methylamino]-5′-deoxyadenosine sulfate (2:1 salt)] | 0.018 µM | –
9 | CCc1nc2c(N)ncnc2n1[C@@H]1O[C@H](CN(C)CCC(N)=O)[C@@H](O)[C@H]1O [Compound 13e, 5′-[(2-Carboxamidoethyl)methyamino]-5′-deoxy-8-ethyladenosine sulfate (1.1:1 salt)] | 4 µM | –
10 | Cc1nc2c(N)ncnc2n1[C@@H]1O[C@H](CN(C)CC(N)=O)[C@@H](O)[C@H]1O.O=S(=O)(O)O [Compound 13f, 5′-[(Carboxamidomethyl)methylamino]-5′-deoxy-8-methyladenosine sulfate (1.45:1 salt)] | – | inhibition (hAdoMetDC): <5% inhibition at 100 μM
11 | CN(CCC(N)=O)C[C@H]1O[C@@H](n2cnc3c(N)ncnc32)[C@H](O)[C@@H]1O [Compound 13j, 5′-[(2-Carboxamidoethyl)methylamino]-5′-deoxyadenosine sulfate (1.9:1 salt)] | 7 µM | –
12 | Cc1nc2c(N)ncnc2n1[C@@H]1O[C@H](CN(C)CCC(=O)NN)[C@@H](O)[C@H]1O [Compound 13k, 5′-Deoxy-5′-[(2-hydrazinocarbonylethyl)methylamino]-8-methyladenosine sulfate (2:1 salt)] | 0.17 µM | –
13 | CN(CCC(=O)NN)C[C@H]1O[C@@H](n2cnc3c(N)ncnc32)[C@H](O)[C@@H]1O [Compound 13l, 5′-Deoxy-5′-[(2-hydrazinocarbonylethyl)methylamino]-adenosine sulfate (2:1 salt)] | 1.5 µM | –
14 | Cc1nc2c(N)ncnc2n1[C@@H]1O[C@H](CN(C)CC(=O)NN)[C@@H](O)[C@H]1O [Compound 13m, 5′-Deoxy-5′-[(hydrazinocarbonylmethyl)methylamino]-8-methyladenosine] | 31 µM | –
15 | CNc1nc2c(N)ncnc2n1[C@@H]1O[C@H](CN(C)CCCN)[C@@H](O)[C@H]1O [Compound 14a, 5′-[(3-Aminopropyl)methylamino]-5′-deoxy-8-(methylamino)adenosine sulfate (2.4:1 salt)] | 440 µM | –
16 | CN(CCCN)C[C@H]1O[C@@H](n2c(-c3ccccc3)nc3c(N)ncnc32)[C@H](O)[C@@H]1O.O=S(=O)(O)O [Compound 14b, 5′-[(3-Aminopropyl)methylamino]-5′-deoxy-8-phenyladenosine sulfate (2.2:1 salt)] | – | inhibition (hAdoMetDC): <5% inhibition at 100 μM
17 | CN(CCCN)C[C@H]1O[C@@H](n2cnc3c(N)ncnc32)[C@H](O)[C@@H]1O [Compound 14d, 5′-[(3-Aminopropyl)methylamino]-5′-deoxyadenosine sulfate (2:1 salt)] | 500 µM | –
18 | CN(CCN)C[C@H]1O[C@@H](n2cnc3c(N)ncnc32)[C@H](O)[C@@H]1O [Compound 14e, 5′-[(2-Aminoethyl)methylamino]-5′-deoxyadenosine] | – | inhibition at 100 µM (hAdoMetDC): < 5%
19 | Cc1nc2c(N)ncnc2n1[C@@H]1O[C@H](CN(C)CCN)[C@@H](O)[C@H]1O [Compound 14f, 5′-[(2-Aminoethyl)methylamino]-5′-deoxy-8-methyladenosine] | 88 µM | –
20 | CNCCCNC[C@H]1O[C@@H](n2c(NC)nc3c(N)ncnc32)[C@H](O)[C@@H]1O.O=S(=O)(O)O [Compound 15a, 5′-deoxy-8-(methylamino)-5′(3-methylaminopropylamino)adenosine sulfate (2.4:1 salt)] | – | inhibition (hAdoMetDC): <5% inhibition at 100 μM
21 | CNCCCNC[C@H]1O[C@@H](n2c(-c3ccccc3)nc3c(N)ncnc32)[C@H](O)[C@@H]1O.O=S(=O)(O)O [Compound 15b, 5′-deoxy-5′-(3-methylaminopropylamino)-8-phenyladenosine sulfate (1.7:1 salt)] | – | inhibition (hAdoMetDC): <5% inhibition at 100 μM
22 | CNCCNC[C@H]1O[C@@H](n2cnc3c(N)ncnc32)[C@H](O)[C@@H]1O [Compound 15c, 5′-deoxy-5′-(2-methylaminoethylamino)adenosine] | – | inhibition at 100 µM (hAdoMetDC): < 5%
23 | CNCCNC[C@H]1O[C@@H](n2c(C)nc3c(N)ncnc32)[C@H](O)[C@@H]1O [Compound 15d, 5′-deoxy-8-methyl-5′-(2-methylaminoethylamino)adenosine] | – | inhibition at 100 µM (hAdoMetDC): < 5%
24 | CN(CCNC(=N)N)C[C@H]1O[C@@H](n2cnc3c(N)ncnc32)[C@H](O)[C@@H]1O [Compound 18a, 5′-Deoxy 5′-[(2-guanidinoethyl)methylamino]adenosine] | – | inhibition at 100 µM (hAdoMetDC): < 5%
25 | C[S+](C)C[C@H]1O[C@@H](n2cnc3c(N)ncnc32)[C@H](O)[C@@H]1O [Compound 21d, 5′-Deoxy-5′-dimethylsulfonioadenosine chloride] | – | Ki (AdoMetDC): in the μM range

Now from value to molecule, other results behind:

Row | IC50 (hAdoMetDC) | Structure (SMILES) | also measured
26 | 420 µM | CCc1nc2c(N)ncnc2n1[C@@H]1O[C@H](CN(C)CCCN)[C@@H](O)[C@H]1O [Compound 17d, 5′-[(3-Aminopropyl)methylamino]-5′-deoxy-8-ethyladenosine sulfate (2.5:1 salt)] | –
27 | 157 µM | CN(CCC(=N)NO)C[C@H]1O[C@@H](n2cnc3c(N)ncnc32)[C@H](O)[C@@H]1O [Compound 18c, 5′-Deoxy-5′-[(2-hydroxyamidinoethyl)methylamino]adenosine] | –
28 | 9 µM | CN(C)C[C@H]1O[C@@H](n2cnc3c(N)ncnc32)[C@H](O)[C@@H]1O [Compound 19b, 5′-Deoxy-5′-(N,N-dimethylamino)adenosine] | –
